For 10 compounds, EC50 results are on record in patent US9586961B2, “Homopiperazine derivatives as protein tyrosine kinase inhibitors and pharmaceutical use thereof” (LEO PHARMA A/S, priority 2010, dated 2017).

Type in all cases: biochemical
The target of one assay is T1, JAK1 (Homo sapiens, UniProt P23458).
T1 construct: JAK1 (aa 850-1154) and TYK2 (aa 871-1187) are expressed with an N-terminally fused GST-tag; GST (N); purchased Carna Biosciences, Inc; host or cells: baculovirus expression system
The assay can be described thus: JAK1 kinase assay (HTRF, inhibition of phosphorylation of a synthetic peptide). The note with it: catalytic domain aa 850-1154, GST-tag; 7 μM ATP (Km); read-out: JAK1 kinase inhibitory activity (EC50). The method, boiled down: (§1)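 HTRF detection (streptavidin-XL665, cryptate anti-phospho antibody, overnight in the dark) after EDTA stop of a 20-30 min RT reaction on 1 μM TK substrate-biotin. Km-level ATP per kinase: 7 μM for JAK1 and 13 μM for TYK2, both N-terminal GST, with 50 nM SEB; 4 μM for JAK2 and 2 μM for JAK3, both His-tagged. Catalytic domains only; DMSO 0.75%.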
A general note: In TR-FRET formats the signal depends on donor and acceptor labels being close together.

For a further assay, the target named is T2, JAK2 (Homo sapiens, UniProt O60674).
T2 construct: All four purified enzymes contain only the catalytic domain; His (N); purchased Carna Biosciences, Inc; host or cells: baculovirus expression system
The assay can be described thus: JAK2 kinase assay (HTRF, inhibition of phosphorylation of a synthetic peptide). The note with it: catalytic domain, His-tag; 4 μM ATP (Km); read-out: JAK2 kinase inhibitory activity (EC50). In outline:
as §1

Another assay addresses T3, JAK3 (Homo sapiens, UniProt P52333).
T3 construct: All four purified enzymes contain only the catalytic domain; His (N); purchased Carna Biosciences, Inc; host or cells: baculovirus expression system
The assay is described as follows: JAK3 kinase assay (HTRF, inhibition of phosphorylation of a synthetic peptide). Conditions: catalytic domain, His-tag; 2 μM ATP (Km); read-out: JAK3 kinase inhibitory activity (EC50). The method, boiled down: as §1

In another assay the target is T4, TYK2 (Homo sapiens, UniProt P29597).
T4 construct: JAK1 (aa 850-1154) and TYK2 (aa 871-1187) are expressed with an N-terminally fused GST-tag; GST (N); purchased Carna Biosciences, Inc; host or cells: baculovirus expression system
T4 sequence (P29597 871-1187): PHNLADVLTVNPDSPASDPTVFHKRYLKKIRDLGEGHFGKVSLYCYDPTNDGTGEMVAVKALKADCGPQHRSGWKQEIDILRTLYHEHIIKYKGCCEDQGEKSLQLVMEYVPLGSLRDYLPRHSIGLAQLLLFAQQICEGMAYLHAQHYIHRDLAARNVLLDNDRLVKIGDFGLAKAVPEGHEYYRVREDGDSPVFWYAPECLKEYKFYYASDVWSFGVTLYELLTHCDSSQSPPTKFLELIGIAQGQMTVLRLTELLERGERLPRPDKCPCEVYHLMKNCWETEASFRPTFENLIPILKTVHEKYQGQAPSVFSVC
The assay is described as follows: TYK2 kinase assay (HTRF, inhibition of phosphorylation of a synthetic peptide). Conditions: catalytic domain aa 871-1187, GST-tag; 13 μM ATP (Km); read-out: TYK2 kinase inhibitory activity (EC50). In outline: as §1

A value given as a limit tells only on which side of the number the result lay.

T3 sequence (P52333 822-1111 limits assumed): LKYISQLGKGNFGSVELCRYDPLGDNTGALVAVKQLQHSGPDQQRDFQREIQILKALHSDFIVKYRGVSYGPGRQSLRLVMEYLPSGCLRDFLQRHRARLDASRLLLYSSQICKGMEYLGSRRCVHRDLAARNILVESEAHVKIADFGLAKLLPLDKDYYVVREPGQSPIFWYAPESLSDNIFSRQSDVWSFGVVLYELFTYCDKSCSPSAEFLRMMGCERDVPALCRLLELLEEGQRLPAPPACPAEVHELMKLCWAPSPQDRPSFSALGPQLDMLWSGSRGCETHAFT
T2 sequence (O60674 849-1124 limits assumed): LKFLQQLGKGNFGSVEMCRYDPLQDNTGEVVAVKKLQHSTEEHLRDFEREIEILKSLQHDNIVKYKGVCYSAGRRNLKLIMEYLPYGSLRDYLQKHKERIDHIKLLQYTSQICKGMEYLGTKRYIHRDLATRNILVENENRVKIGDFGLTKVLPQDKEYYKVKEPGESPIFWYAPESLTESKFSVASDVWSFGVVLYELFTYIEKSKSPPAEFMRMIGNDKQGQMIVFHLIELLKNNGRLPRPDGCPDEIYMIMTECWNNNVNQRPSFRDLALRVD
T1 sequence (P23458 850-1154): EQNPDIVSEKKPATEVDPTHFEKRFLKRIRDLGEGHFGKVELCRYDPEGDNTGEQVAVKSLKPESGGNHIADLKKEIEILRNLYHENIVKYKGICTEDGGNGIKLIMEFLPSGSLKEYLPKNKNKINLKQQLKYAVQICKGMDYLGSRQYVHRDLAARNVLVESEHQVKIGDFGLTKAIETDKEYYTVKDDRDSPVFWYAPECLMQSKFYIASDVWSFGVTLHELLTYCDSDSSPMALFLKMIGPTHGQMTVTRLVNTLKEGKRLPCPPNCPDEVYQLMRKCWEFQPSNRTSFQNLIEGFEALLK

One may read the EC50 as the midpoint of the concentration-response curve. In the case of `NS(=O)(=O)c1ccc(NC(=O)C(=O)N2CCN(c3ncnc4[nH]ccc34)CC3(CC3)C2)cc1` [Example 64, 2-oxo-2-[5-(7H-pyrrolo[2,3-d]pyrimidin-4-yl)-5,8-diazaspiro[2.6]nonan-8-yl]-N-(4-sulfamoylphenyl)acetamide], the EC50 is under 100 nM at JAK1, under 100 nM on JAK2, under 100 nM at JAK3 and 100 to 1000 nM on TYK2.
On to `N#Cc1ccccc1C(=O)N1CCN(c2ncnc3[nH]ccc23)CC2(CC2)C1` [Example 7, 2-[8-(7H-pyrrolo[2,3-d]pyrimidin-4-yl)-5,8-diazaspiro[2.6]nonane-5-carbonyl]benzonitrile], for which the EC50 was over 1000 nM on JAK1, 100 to 1000 nM at JAK2, over 1000 nM on JAK3 and over 1000 nM on TYK2.
Regarding `Cc1c(S(N)(=O)=O)csc1C(=O)N1CCN(c2ncnc3[nH]ccc23)CC2(CC2)C1` [Example 25, 4-methyl-5-[5-(7H-pyrrolo[2,3-d]pyrimidin-4-yl)-5,8-diazaspiro[2.6]nonane-8-carbonyl]thiophene-3-sulfonamide], the EC50 on JAK1 is 100 to 1000 nM; at JAK2, under 100 nM; on JAK3, 100 to 1000 nM; at TYK2, over 1000 nM.
Take `CCCCS(=O)(=O)N1CCN(c2ncnc3[nH]ccc23)CC2(CC2)C1` [Example 97, 4-(8-butylsulfonyl-5,8-diazaspiro[2.6]nonan-5-yl)-7H-pyrrolo[2,3-d]pyrimidine]: the EC50 on JAK1 is 100 to 1000 nM; on JAK2 it was 100 to 1000 nM; at JAK3 it was over 1000 nM; on TYK2, over 1000 nM.
Turning to `CC(=O)N1CCC(C(=O)N2CCN(c3ncnc4[nH]ccc34)CC3(CC3)C2)CC1` [Example 6, 1-{4-[8-(7H-pyrrolo[2,3-d]pyrimidin-4-yl)-5,8-diazaspiro[2.6]nonane-5-carbonyl]piperidin-1-yl}ethanone], the EC50 at JAK1 was 100 to 1000 nM; on JAK2 it was 100 to 1000 nM; at JAK3, over 1000 nM; on TYK2 it was over 1000 nM.
On to `O=C(c1cc2c(s1)CCC2)N1CCN(c2ncnc3[nH]ccc23)CC2(CC2)C1` [Example 21, 5,6-dihydro-4H-cyclopenta[b]thiophen-2-yl-[5-(7H-pyrrolo[2,3-d]pyrimidin-4-yl)-5,8-diazaspiro[2.6]nonan-8-yl]methanone], for which the EC50 is 100 to 1000 nM on JAK1, 100 to 1000 nM at JAK2, 100 to 1000 nM at JAK3 and over 1000 nM on TYK2.
For the compound `N#CCCC(=O)N1CCN(c2ncnc3[nH]ccc23)CCC12CC2` [Example 49, 4-oxo-4-[6-(7H-pyrrolo[2,3-d]pyrimidin-4-yl)-6,9-diazaspiro[2.6]nonan-9-yl]butanenitrile], the EC50 is 100 to 1000 nM at JAK1, 100 to 1000 nM on JAK2, 100 to 1000 nM at JAK3 and over 1000 nM on TYK2.
Turning to `Cn1c(C(=O)N2CCN(c3ncnc4[nH]ccc34)CC3(CC3)C2)ccc1S(N)(=O)=O` [Example 35, 1-methyl-5-[5-(7H-pyrrolo[2,3-d]pyrimidin-4-yl)-5,8-diazaspiro[2.6]nonane-8-carbonyl]pyrrole-2-sulfonamide], the EC50 on JAK1 was 100 to 1000 nM; on JAK2, 100 to 1000 nM; at JAK3, 100 to 1000 nM; at TYK2, over 1000 nM.
With `NS(=O)(=O)c1ccc(C(=O)N2CCN(c3ncnc4[nH]ccc34)CC3(CC3)C2)cc1Cl` [Example 32, 2-chloro-4-[5-(7H-pyrrolo[2,3-d]pyrimidin-4-yl)-5,8-diazaspiro[2.6]nonane-8-carbonyl]benzenesulfonamide], the EC50 was under 100 nM at JAK1, 100 to 1000 nM on JAK2, 100 to 1000 nM at JAK3 and over 1000 nM at TYK2.
In the case of `O=C(c1ccc(S(=O)(=O)NCC2CCCO2)cc1)N1CCN(c2ncnc3[nH]ccc23)CC2(CC2)C1` (stereo not shown) [Example 70], the EC50 is 100 to 1000 nM at JAK1, 100 to 1000 nM on JAK2, 100 to 1000 nM at JAK3 and over 1000 nM on TYK2.
